Key:
KU-19-19 cells = assay: ATPlite luminescence assay of extracellular ATP; format: cell-based, human; conditions: pretreatment with 10 μM ruthenium red, 50 μM AV3-1
Experimental: KU-19-19 cells (1 × 10^5 per well) were plated in 24-well plates and cultured for 24 hours. Medium was removed, and wells were washed with PBS before adding 1 mL of drugs dissolved in PBS. After 30 minutes, 100 μL of the supernatant was transferred to a 96-well plate. ATP content was measured using the ATPlite luminescence ATP assay (Revvity, catalog number 6016943) following manufacturer’s instructions. Luminescence was recorded using a Polarstar Omega reader and normalized to control wells without addition of drugs.
Fig. 4 TRPV3 activation by AV3-1 was enhanced by cholesterol supplementation and causes ATP release in KU-19-19 bladder cancer cells. […] Current amplitudes were recorded using voltage ramps from −100 mV to +100 mV (500-millisecond duration) and expressed as current density (pA/pF) measured at +100 mV and −100 mV. (C) Quantification of current densities (pA/pF) at −100 mV (inward current) and +100 mV (outward current) at the time points (1, 2) as indicated in (A, B). […] Statistical significance was determined using Kruskal-Wallis ANOVA followed by Conover test; ∗P < .05. […] Inset: Box-and-whisker plots of AV3-1 potencies under control conditions (open box) and following cholesterol supplementation (gray box), derived from individual concentration-response fits and expressed as pEC50 (-log10(EC50 [M])). […]

HEK293 cells = test system: HEK293 cells; parameters: method as in PMID 35916168; conditions: >10 μM; cited from earlier work

SMILES | effect on AV3-1-evoked ATP release (KU-19-19 cells) | effects on HEK293 cells at higher concentrations (HEK293 cells)
N.N.N.N.N.N.N.N.N.N.N.N.N.N.[Cl-].[Cl-].[Cl-].[Cl-].[Cl-].[Cl-].[O-2].[O-2].[Ru+3].[Ru+3].[Ru+4] [ruthenium red, reference compound] | reduced ATP levels | –
Cc1ccc(O)c(C2CCC(C(C)C)=C2Cl)c1 (centres unmarked) [KS0365] | – | nonspecific effects

Reference: PMC12881674, “Activation of TRPV3 channels in bladder cancer cells stimulates ATP release” (Molecular Pharmacology, 2025)
